The target in this assay is T1, SIRT7 protein (Homo sapiens, UniProt Q9NRC8).
T1 construct: purchased SignalChem S41-30H
T1 sequence (Q9NRC8 1-400): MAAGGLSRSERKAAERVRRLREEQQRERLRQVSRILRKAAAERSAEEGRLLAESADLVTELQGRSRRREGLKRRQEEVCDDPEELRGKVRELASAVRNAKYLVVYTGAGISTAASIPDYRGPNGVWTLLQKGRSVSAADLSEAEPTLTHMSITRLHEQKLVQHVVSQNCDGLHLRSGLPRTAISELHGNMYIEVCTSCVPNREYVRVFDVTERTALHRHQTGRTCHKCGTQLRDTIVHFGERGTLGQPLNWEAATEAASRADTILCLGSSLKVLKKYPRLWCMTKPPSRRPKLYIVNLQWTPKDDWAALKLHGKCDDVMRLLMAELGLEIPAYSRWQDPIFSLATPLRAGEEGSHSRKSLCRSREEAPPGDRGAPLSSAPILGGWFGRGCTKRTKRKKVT
Put plainly: SIRT Glo assay, inhibitory activity against Sirt7. The class given is biochemical. Conditions: 10 μM compound. Here is the method: Promega's Cat. No. 6450 SIRT Glo assay kit was used, and as the target SIRT7 protein, No. S41-30H protein of SignalChem's Cat. was used. Prepare the compound by diluting it in SIRT Glo buffer in advance to a concentration twice as thick as the final concentration. For the positive control group of white 384 well plate (Greiner Bioone, white, small volume, Cat. No. 874075), and for compound group, dilute sirt7 protein in SIRT Glo buffer and dispense by 5 μL to contain 20 ng per well. In the background control group, 10 μL of SIRT Glo buffer is dispensed.
After adding 5 μL of SIRT Glo buffer to the positive control group, and 5 μL of the diluted compound to the compound group, react for 30 minutes. After making the substrate provided in the SIRT Glo assay, adding 10 μL each, and reacting for 1 hour, the luciferase activity is measured with a microplate reader (Molecular Device, spectramax i3).
Subtract the luciferase level of the background control group in all wells. The % inhibition of the compound was used to obtain the compound's rate of inhibitory activity against sirt7 in the following:
% inhibition=100−(compound group/positive control group)×100.
By inhibition is commonly meant the change of the read-out against control, counted positive when it falls. A higher inhibition goes with a response far below the control. Molecule `CC(C)(C)OC(=O)N1CCN(Cc2ccc(C(=O)Nc3nc4ccccc4[nH]3)cc2)CC1` [Compound 1-1, Tert-Butyl 4-(4-((1H-benzo[d]imidazol-2-yl)carbamoyl)benzyl)piperazine-1-carboxylate] came in with an inhibition at 10 µM of 12%.

As for `Cn1c(NC(=O)c2ccc(CN3CCN(C(=O)OC(C)(C)C)CC3)cc2)nc2ccccc21` [Compound 1-2, Tert-Butyl 4-(4-((1-methyl-1H-benzo[d]imidazol-2-yl)carbamoyl)benzyl)piperazine-1-carboxylate], testing at 10 µM gave an inhibition of 8%.

On to `O=C(Nc1nc2ccccc2[nH]1)c1ccc(CN2CCNCC2)cc1` [Compound 1-3, N-(1H-benzo[d]imidazol-2-yl)-4-(piperazin-1-ylmethyl)benzamide], for which the inhibition at 10 µM came out at 10%.

`Cc1ccc(Oc2ccc(C(=O)Nc3nc4ccccc4[nH]3)cc2)nn1` [Compound 1-4, N-(1H-benzo[d]imidazol-2-yl)-4-((6-methylpyridazin-3-yl)oxy)benzamide] came in with an inhibition at 10 µM of 90%.

`Cc1ccc(Oc2cccc(C(=O)Nc3nc4ccccc4[nH]3)c2)nn1` [Compound 1-5, N-(1H-benzo[d]imidazol-2-yl)-3-((6-methylpyridazin-3-yl)oxy)benzamide] returned an inhibition at 10 µM of 65%.

Molecule `Cc1ccc(Oc2ccc(C(=O)Nc3nc4cc(F)ccc4[nH]3)cc2)nn1` [Compound 1-6, N-(5-fluoro-1H-benzo[d]imidazol-2-yl)-4-((6-methylpyridazin-3-yl)oxy)benzamide] came in with an inhibition at 10 µM of 92%.

With `Cc1ccc(Oc2ccc(C(=O)Nc3nc4cc(F)c(F)cc4[nH]3)cc2)nn1` [Compound 1-7, N-(5,6-difluoro-1H-benzo[d]imidazol-2-yl)-4-((6-methylpyridazin-3-yl)oxy)benzamide], the inhibition at 10 µM turned out to be 5%.

As for `CCc1cnc(Oc2cccc(C(=O)Nc3nc4ccccc4[nH]3)c2)nc1` [Compound 1-8, N-(1H-benzo[d]imidazol-2-yl)-3-((5-ethylpyrimidin-2-yl)oxy)benzamide], the inhibition at 10 µM stood at 44%.

Consider `CCc1cnc(Oc2ccc(C(=O)Nc3nc4ccccc4[nH]3)cc2)nc1` [Compound 1-9, N-(1H-benzo[d]imidazol-2-yl)-4-((5-ethylpyrimidin-2-yl)oxy)benzamide], for which testing at 10 µM gave an inhibition of 63%.

As for `O=C(Nc1nc2ccccc2[nH]1)c1ccc(Oc2ncc(F)cn2)cc1` [Compound 1-10, N-(1H-benzo[d]imidazol-2-yl)-4-((5-fluoropyrimidin-2-yl)oxy)benzamide], the inhibition at 10 µM was 56%.

Molecule `O=C(Nc1nc2ccccc2[nH]1)c1cccc(Oc2ncc(F)cn2)c1` [Compound 1-11, N-(1H-benzo[d]imidazol-2-yl)-3-((5-fluoropyrimidin-2-yl)oxy)benzamide] registered an inhibition at 10 µM of 21%.

In turn, `O=C(Nc1nc2ccccc2[nH]1)c1ccc(OCc2ccccc2)cc1` [Compound 1-12, N-(1H-benzo[d]imidazol-2-yl)-4-(benzyloxy)benzamide] displayed an inhibition at 10 µM of 99%.

Molecule `O=C(Nc1nc2ccccc2[nH]1)c1ccc(OCc2ccc(C(F)(F)F)cc2)cc1` [Compound 1-13, N-(1H-benzo[d]imidazol-2-yl)-4-((4-(trifluoromethyl)benzyl)oxy)benzamide] returned an inhibition at 10 µM of 21%.

As for `O=C(Nc1nc2ccccc2n1Cc1ccc(C(F)(F)F)cc1)c1ccc(OCc2ccc(C(F)(F)F)cc2)cc1` [Compound 1-14, N-(1-(4-(trifluoromethyl)benzyl)-1H-benzo[d]imidazol-2-yl)-4-((4-(trifluoromethyl)benzyl)oxy)benzamide], at 10 µM the inhibition was 15%.

On to `Cc1ccc(Oc2ccc(C(=O)Nc3nc4ccccc4s3)cc2)nn1` [Compound 1-15, N-(benzo[d]thiazol-2-yl)-4-((6-methylpyridazin-3-yl)oxy)benzamide], for which 10 µM produced 52% inhibition.

On to `Cc1ccc(Oc2ccc(C(=O)Nc3nc4cccnc4s3)cc2)nn1` [Compound 1-16, 4-((6-methylpyridazin-3-yl)oxy)-N-(thiazolo[5,4-b]pyridin-2-yl)benzamide], for which the inhibition at 10 µM was determined as 87%.

The molecule `Cc1ccc(Oc2cccc(C(=O)Nc3nc4ccccc4s3)c2)nn1` [Compound 1-17, N-(benzo[d]thiazol-2-yl)-3-((6-methylpyridazin-3-yl)oxy)benzamide] displayed an inhibition at 10 µM of 88%.

Molecule `Cc1ccc(Oc2ccc(C(=O)Nc3nc4ccc(Br)cc4s3)cc2)nn1` [Compound 1-18, N-(6-bromobenzo[d]thiazol-2-yl)-4-((6-methylpyridazin-3-yl)oxy)benzamide] showed an inhibition at 10 µM of 5%.

For the molecule `CCc1cnc(Oc2ccc(C(=O)Nc3nc4ccccc4s3)cc2)nc1` [Compound 1-19, N-(benzo[d]thiazol-2-yl)-4-((5-ethylpyrimidin-2-yl)oxy)benzamide], 10 µM produced 13% inhibition.

Turning to `CCc1cnc(Oc2cccc(C(=O)Nc3nc4ccccc4s3)c2)nc1` [Compound 1-20, N-(benzo[d]thiazol-2-yl)-3-((5-ethylpyrimidin-2-yl)oxy)benzamide], the inhibition at 10 µM worked out at 63%.

`O=C(Nc1nc2ccccc2s1)c1ccc(Oc2ncc(F)cn2)cc1` [Compound 1-21, N-(benzo[d]thiazol-2-yl)-4-((5-fluoropyrimidin-2-yl)oxy)benzamide] yielded an inhibition at 10 µM of 41%.

The molecule `CC(C)(C)OC(=O)N1CCN(c2nc3ccccc3s2)CC1` [Compound 1-22, tert-butyl 4-(benzo[d]thiazol-2-yl)piperazine-1-carboxylate] returned an inhibition at 10 µM of 49%.

The molecule `c1ccc2sc(N3CCC4(CC3)OCCO4)nc2c1` [Compound 1-23, 8-(benzo[d]thiazol-2-yl)-1,4-dioxa-8-azaspiro[4.5]decane] came in with an inhibition at 10 µM of 78%.

Regarding `CC(C)(C)OC(=O)N1CCC2(CC1)CN(c1nc3ccccc3s1)C2` [Compound 1-24, tert-butyl 2-(benzo[d]thiazol-2-yl)-2,7-diazaspiro[3.5]nonane-7-carboxylate], the inhibition at 10 µM was determined as 10%.

For `CC(C)(C)OC(=O)N1C[C@@H]2C[C@H]1CN2Cc1ccc(C(=O)Nc2nc3ccccc3s2)cc1` [Compound 1-25, Tert-Butyl (1S,4S)-5-(4-(benzo[d]thiazol-2-ylcarbamoyl)benzyl)-2,5-diazabicyclo[2.2.1]heptane-2-carboxylate], the inhibition at 10 µM came out at 72%.

In the case of `CC(C)(C)OC(=O)N1CCN(Cc2ccc(C(=O)Nc3nc4ccccc4s3)cc2)CC1` [Compound 1-26, Tert-Butyl 4-(4-(benzo[d]thiazol-2-ylcarbamoyl)benzyl)piperazine-1-carboxylate], the inhibition at 10 µM amounted to 40%.

As to `CC(C)(C)OC(=O)N1CC2(CCN(Cc3ccc(C(=O)Nc4nc5ccccc5s4)cc3)CC2)C1` [Compound 1-27, tert-butyl 7-(4-(benzo[d]thiazol-2-ylcarbamoyl)benzyl)-2,7-diazaspiro[3.5]nonane-2-carboxylate], the inhibition at 10 µM was 27%.

Turning to `CC(C)(C)OC(=O)N1CCC2(CCN(Cc3ccc(C(=O)Nc4nc5ccccc5s4)cc3)CC2)CC1` [Compound 1-28, tert-butyl 9-(4-(benzo[d]thiazol-2-ylcarbamoyl)benzyl)-3,9-diazaspiro[5.5]undecane-3-carboxylate], the inhibition at 10 µM turned out to be 62%.

For the molecule `O=C(Nc1nc2ccccc2s1)c1ccc(CN2CCC3(CC2)OCCO3)cc1` [Compound 1-29, 4-((1,4-dioxa-8-azaspiro[4.5]decan-8-yl)methyl)-N-(benzo[d]thiazol-2-yl)benzamide], testing at 10 µM gave an inhibition of 83%.

Molecule `c1ccc(CN2CCC3(CC2)CN(c2nc4ccccc4s2)C3)cc1` [Compound 1-30, 2-(7-benzyl-2,7-diazaspiro[3.5]nonan-2-yl)benzo[d]thiazole] came in with an inhibition at 10 µM of 19%.

For the molecule `O=C(Nc1nc2ccccc2s1)c1ccc(CN2CCNCC2)cc1` [Compound 1-31, N-(benzo[d]thiazol-2-yl)-4-(piperazin-1-ylmethyl)benzamide], the inhibition at 10 µM stood at 15%.

Turning to `CCS(=O)(=O)N1CCN(Cc2ccc(C(=O)Nc3nc4ccccc4s3)cc2)CC1` [Compound 1-32, N-(benzo[d]thiazol-2-yl)-4-((4-(ethylsulfonyl)piperazin-1-yl)methyl)benzamide], the inhibition at 10 µM came out at 34%.

Molecule `CN(C)S(=O)(=O)N1CCN(Cc2ccc(C(=O)Nc3nc4ccccc4s3)cc2)CC1` [Compound 1-33, N-(benzo[d]thiazol-2-yl)-4-((4-(N,N-dimethylsulfamoyl)piperazin-1-yl)methyl)benzamide] had an inhibition at 10 µM of 33%.

In the case of `O=C(Nc1nc2ccccc2s1)c1ccc(CN2CCN(S(=O)(=O)C3CC3)CC2)cc1` [Compound 1-34, N-(benzo[d]thiazol-2-yl)-4-((4-(cyclopropylsulfonyl)piperazin-1-yl)methyl)benzamide], testing at 10 µM gave an inhibition of 29%.

For the molecule `O=C(Nc1nc2ccccc2s1)c1ccc(CN2CCN(S(=O)(=O)c3ccccc3)CC2)cc1` [Compound 1-35, N-(benzo[d]thiazol-2-yl)-4-((4-(phenylulfonyl)piperazin-1-yl)methyl)benzamide], 10 µM produced 20% inhibition.
